This note sets out measurements from patent publication US20230203098A1, “HUMAN TRANSFERRIN RECEPTOR BINDING PEPTIDE” (priority 2020, published 2023).

For one data set, the system named is hTfR-KI mice. The experiment in a line: Mouse brain localization confirmation test with FITC conjugate (immunohistochemical staining, single and multiple dose). It is filed as in vivo. The settings on record: multiple dose test, 3.7 mg/kg every 10 minutes, 6 times. Here is the method:
In the same manner as in Example 5, the conjugate of the hTfR-binding special cyclic peptide No. 894 and the fluorescent substance FITC was administered to the hTfR-KI mice. The dose was adjusted to 3.7 mg/kg.
One hour after administration, the mice were anesthetized with isoflurane and subjected to a blood removal treatment by running normal saline from the left ventricle for 4 to 5 minutes. After that, the brain was collected for measuring the fluorescence intensity and stored in normal saline to prevent drying. This brain tissue was subjected to immunohistochemical staining using an anti-FITC antibody (MBL Life Science). The immunohistochemical staining in the brain tissue using the anti-FITC antibody was performed with a publicly known method and the staining was observed using a fluorescence microscope. Note that in the figure, red arrows indicate the cerebral capillaries and arrowheads indicate the Purkinje cells.
The localization of the above-mentioned conjugate in the brain tissue was confirmed by the immunohistochemical staining. Note that, in the figure, red arrows indicate the cerebral capillaries, arrowheads indicate the Purkinje cells, and yellow arrows indicate dendrites.

For data set [1], the system named is Human breast cancer cells BT-549. Nature of the data set: Migration of 5-FAM peptide conjugates into human breast cancer cells BT-549 (fluorescence microscopy). It is filed as cell-based. The settings on record: BT-549 cells, sample diluted to 100 nmol/L, 37° C., 3 hours. Here is the method: Culturing was performed under conditions of 37° C. and 5% CO2.
Collagen Type I (Corning) was diluted to 50 µg/mL with 20 mmol/L acetic acid. A sterilized cover glass was placed in each well of the 24-well plate. After the diluted Collagen Type I solution was added to the plate, the plate was incubated at 37° C. for 1 hour. The Collagen Type I solution was removed from the plate and the plate was washed 3 times with PBS. The human breast cancer cells BT-549 were inoculated in an amount of 1 × 10^5 cells per 1 well and cultured overnight under conditions of 37° C. and 5% CO2.
The sample was diluted with the dilution medium to 100 nmol/L.
The sample solution was removed from the 24-well plate, and the BT-549 cells were washed three times with PBS. 4% paraformaldehyde phosphate buffer (FUJIFILM Wako Pure Chemical Corporation) was added at 500 µL/well, and the cells were allowed to stand at room temperature for 15 minutes and then washed three times with PBS. Further, Hoechst 33342 (Thermo Fisher Scientific) diluted with PBS to 2 µg/mL was added at 500 µL/well, and the cells were allowed to stand at room temperature under shading for 10 minutes and then washed three times with PBS. The cover glass was removed from the 24-well plate, and the cells were enclosed on a slide glass using fluorescent mounting medium (Agilent Technologies) and allowed to stand at room temperature under shading overnight. For the observation, an inverted fluorescence microscope DMI6000B (Leica Microsystems) was used, and the observation was performed at the wavelength for detecting FITC and DAPI. The scale bar in the figures indicates 50 µm.

The test system of a further data set is TfR-KI mice. The settings on record: mouse, in vivo. Here is the method:
hTfRNo.894-vivotag750 conjugate administration liquid (No. 894 administration liquid) : 4.8 µL of dimethyl sulfoxide (DMSO, Sigma Aldrich) was added to 6 µL of a 5 mM solution of the hTfRNo.894-vivotag750 conjugate synthesized in Example 2, 66 µL of the 20% hydroxypropyl-β-cyclodextrin solution was further added, and the mixture was mixed well. To this, 48 µL of polyethylene glycol 400 was further added and mixed to prepare a No. 894-administration liquid. […] The offspring (chimeric mice) thus obtained were determined by hair color, and individuals in which the ES cells contributed to the development of the organism at a higher rate, that is, individuals having a higher proportion of white hairs relative to their total body hairs, were selected. […] White-colored F1 mice were selected, DNA was extracted from their tail tissues and analyzed, and the mice in which the mouse transferrin receptor gene on the chromosome had been heterologously replaced with the chimeric hTfR were selected as the TfR-KI mice. […] After this, tissues for measuring fluorescence intensity (brain, heart, lung, liver, spleen, kidney, quadriceps femoris muscle, thymus, thoracic vertebrae, and femur) were collected and stored in normal saline to prevent drying. […]

Data set [2] concerns the target transferrin receptor (hTfR) (Homo sapiens, UniProt P02786). Nature of the data set: Intermolecular interaction evaluation test between transferrin receptor (hTfR) and peptide by surface plasmon resonance (SPR). It is filed as binding. The settings on record: SPR, result in words. In short, it runs like this:
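Receptor was Ni-captured and EDC/NHS-fixed on an NTA chip; running buffer HEPES pH 8.0 with NaCl, Tween 20, BSA and 1.0% DMSO.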
In general terms: Surface plasmon resonance follows binding to a sensor surface in real time, without labels.

*1 amine or outer side, *2 acyl side, *3 side chain or, on linkers, in order; H or OH if unused. Where a SMILES comes first, the peptide text is derived from it. Bridges are numbered along the chain shown (N, C = ends). Primed or numbered codes have the meaning given here. Where no end group is shown, it is not given here. [ ]: non-standard residue; d: D form. The star is where a group is joined. ξ: configuration not given here. X6 = CC(C)[C@H](CC(=O)[C@H](Cc1ccccc1)N(C)[*:1])C(=O)[*:2]; X2 = O=C(O)c1cc(C(=O)*)ccc1-c1c2ccc(=O)cc-2oc2cc(O)ccc12; Tyr(Me) = COc1ccc(C[C@H](N[*:1])C(=O)[*:2])cc1; NMePhe(3-Cl) = CN[C@@H](Cc1cccc(Cl)c1)C(=O)O; NMeW = CN[C@@H](Cc1c[nH]c2ccccc12)C(=O)O; NMeY = CN[C@@H](Cc1ccc(O)cc1)C(=O)O; PEG4 = NCCOCCOCCOCCOCCC(=O)O; PEG11′ = not defined here; Aib = CC(C)(N)C(=O)O; ξC = NC(CS)C(=O)O

Chain of transferrin receptor (hTfR) (P02786 whole entry): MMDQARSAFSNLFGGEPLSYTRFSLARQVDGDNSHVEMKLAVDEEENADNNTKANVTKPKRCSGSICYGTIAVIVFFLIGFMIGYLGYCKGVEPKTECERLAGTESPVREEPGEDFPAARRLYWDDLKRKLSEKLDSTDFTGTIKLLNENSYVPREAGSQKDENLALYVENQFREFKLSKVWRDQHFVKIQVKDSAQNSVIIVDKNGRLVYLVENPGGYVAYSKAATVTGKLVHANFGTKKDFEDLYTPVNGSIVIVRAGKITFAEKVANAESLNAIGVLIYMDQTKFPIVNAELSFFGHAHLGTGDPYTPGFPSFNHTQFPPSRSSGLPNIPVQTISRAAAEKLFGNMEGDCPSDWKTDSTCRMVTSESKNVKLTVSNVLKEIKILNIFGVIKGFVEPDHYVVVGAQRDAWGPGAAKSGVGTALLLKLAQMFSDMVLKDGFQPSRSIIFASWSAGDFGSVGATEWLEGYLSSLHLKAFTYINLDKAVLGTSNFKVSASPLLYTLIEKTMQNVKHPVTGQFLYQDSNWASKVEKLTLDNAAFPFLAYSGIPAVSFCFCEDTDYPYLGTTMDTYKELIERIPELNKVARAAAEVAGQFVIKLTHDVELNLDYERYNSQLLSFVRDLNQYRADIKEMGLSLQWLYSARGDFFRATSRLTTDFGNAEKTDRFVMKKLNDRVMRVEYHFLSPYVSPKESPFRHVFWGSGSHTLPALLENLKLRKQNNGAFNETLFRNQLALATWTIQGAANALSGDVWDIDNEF

In the case of `CC[C@H](C)[C@@H]1NC(=O)[C@H](Cc2ccc(O)cc2)NC(=O)[C@H](Cc2ccc(O)cc2)NC(=O)[C@H](CC(N)=O)NC(=O)[C@H](Cc2c[nH]c3ccccc23)NC(=O)[C@H](C(C)C)NC(=O)[C@H](Cc2ccccc2)NC(=O)[C@H](C(C)C)NC(=O)[C@H](C)NC(=O)CSC[C@@H](C(=O)NCCOCCOCCOCCOCCOCCOCCOCCOCCOCCOCCOCCOCCC(=O)N[C@@H](CCCCNC(=O)c2ccc(-c3c4ccc(=O)cc-4oc4cc(O)ccc34)c(C(=O)O)c2)C(N)=O)NC(=O)[C@H](Cc2ccc(O)cc2)N(C)C(=O)[C@H](Cc2ccc(O)cc2)NC(=O)[C@H](CCCNC(=N)N)NC(=O)[C@H](CCCNC(=N)N)NC(=O)[C@H]([C@@H](C)CC)NC1=O`, the “localization in the brain tissue” value with hTfR-KI mice is recorded as “reached as far as neurons such as the Purkinje cells”.

For the compound `CC[C@H](C)[C@@H]1NC(=O)[C@H](Cc2ccc(O)cc2)NC(=O)[C@H](Cc2ccc(O)cc2)NC(=O)[C@H](CC(N)=O)NC(=O)[C@H](Cc2c[nH]c3ccccc23)NC(=O)[C@H](C(C)C)CC(=O)[C@H](Cc2ccccc2)N(C)C(=O)[C@H](C(C)C)NC(=O)[C@H](C)NC(=O)CSCC(C(=O)NCCOCCOCCOCCOCCC(=O)N[C@H](CCCCNC(=O)c2ccc(-c3c4ccc(=O)cc-4oc4cc(O)ccc34)c(C(=O)O)c2)C(N)=O)NC(=O)[C@H](Cc2ccc(O)cc2)N(C)C(=O)[C@H](Cc2ccc(O)cc2)NC(=O)[C@H](CCCNC(=N)N)NC(=O)[C@H](CCCNC(=N)N)NC(=O)[C@H]([C@@H](C)CC)NC1=O` (stereo partly drawn) [Patent ID 446] ({CH2CO}-AV[X6]WNYYIIRRY[NMeY][ξC][PEG4][dK](X2)-NH2; thioether N-14), the “migration into the cells” value in data set [1] is “into the cells was confirmed”.

Regarding `CC[C@H](C)[C@@H]1NC(=O)[C@H](Cc2ccc(O)cc2)NC(=O)[C@H](Cc2ccc(O)cc2)NC(=O)[C@H](CC(N)=O)NC(=O)[C@H](Cc2c[nH]c3ccccc23)NC(=O)[C@H](C(C)C)NC(=O)[C@H](Cc2ccccc2)NC(=O)[C@H](C(C)C)NC(=O)[C@H](C)NC(=O)CSC[C@@H](C(N)=O)NC(=O)[C@H](Cc2ccc(O)cc2)N(C)C(=O)[C@H](Cc2ccc(O)cc2)NC(=O)[C@H](CCCNC(=N)N)NC(=O)[C@H](CCCNC(=N)N)NC(=O)[C@H]([C@@H](C)CC)NC1=O` [hTfR No. 894], in the data set with TfR-KI mice, the “migration into the brain through the BBB” value is on record as “migrated into the brain through the BBB” and the migration to tissues result is reported as “also migrated to each tissue, mainly muscle tissues”. Turning to “Patent ID 447: 5-FAM labelled conjugate of hTfR_894_variant61_PEG4 (AVXVWNYXIIXXFYC; not fully specified; PEG4 linker, 5-FAM label; (3)..(3) Xaa is MeF3C; MOD_RES (5)..(5) …ON; (8)..(8) Xaa is F4OMe; (11)..(11) Xaa is Aib; (12)..(12) Xaa is dr; MOD_RES (14)..(14) …ON)”, in data set [1], the “migration into the cells” value is listed as “into the cells was confirmed”.

As for “Patent ID 448: 5-FAM labelled conjugate of hTfR_894_variant03_PEG4 (AVXVWNYXIIRXFYC; not fully specified; PEG4 linker, 5-FAM label; (3)..(3) Xaa is MeF3C; MOD_RES (5)..(5) …ON; (8)..(8) Xaa is F4OMe; (12)..(12) Xaa is dr; MOD_RES (14)..(14) …ON)”, the “migration into the cells” value in data set [1] is given as “into the cells was confirmed”. Regarding “Patent ID 449: negative control, 5-FAM labelled conjugate of Flip894_variant61_PEG4, a peptide without binding ability to hTfR ({CH2CO}-A[NMeY]F[dR][Aib]IY[Tyr(Me)]YN[NMeW]V[NMePhe(3-Cl)]VC; thioether N-15; not fully specified (C-terminus); also: methylation at Y2 and W11, type not given here) [reference compound]”, the hTfR binding ability result in data set [2] was “no binding to hTfR was observed”. Further, in data set [1], the “migration into the cells” value is “did not migrate into the cells”. “hTfRNo.894FLIP-vivotag750: control: cyclic peptide with inverted No. 894 sequence (SEQ ID NO: 202) bound to VivoTag 750 via PEG11 linker ({CH2CO}-A[NMeY]YRRIIYYNWVFVC-{PEG11′-VivoTag750}; thioether N-15 (inferred); not fully specified; printed as ClAc-Ala-MeTyr-Tyr-Arg-Arg-Ile-Ile-Tyr-Tyr-Asn-Trp-Val-Phe-Val-Cys) [reference compound]”: in data set [2], the hTfR binding ability result is “no binding to hTfR was recognized”.
